Experimental data as given in patent US20100120887A1, “SUSTAINED RELEASE FORMULATION OF MELATONIN” (THE TRUSTEES OF COLUMBIA UNIVERSITY IN THE CITY OF NEW YORK, priority 2007, published 2010).

Assay: Initial clinical evaluation, open clinical treatment of circadian sleep disorders and depression (case reports)
Type: in vivo, human
Source text: The present invention describes tablet formulation, in vitro and in vivo pharmacokinetics in a healthy, middle-aged subject group, and a range of potential uses. In the past three years, the present invention has been used in open clinical treatment of a variety of cases comprising circadian sleep disorders and depression. The strategy for treatment concentrates on serious cases, from which application to less severe cases—far more common population-wide—can be inferred. For example, in Delayed Sleep Phase Disorder (DSPD), the patient cannot fall asleep before wee hours of the night or early morning because of misalignment of the internal circadian timing system with external day and night. […] Melatonin is the chronobiotic par exemplar. Milder circadian misalignment is highly prevalent in the population, often starting in adolescence. A typical example is the worker who must maintain a 9-5 schedule but cannot fall asleep before 1 AM (“early insomnia”), leaving six hours for sleep availability, leading to daytime fatigue, disorientation, lapses of alertness, and weekend oversleeping that can trigger depressed mood. Such people comprise a primary market for the present invention, with the prospect of reduced reliance on sleeping pills.
Thus far, an ensemble of chronotherapeutic interventions has been used in clinical trials. […]

SMILES: COc1ccc2[nH]cc(CCNC(C)=O)c2c1 [melatonin, N-acetyl-5-methoxytryptamine]
- sleep onset and depressive symptoms under treatment (Case 2: seasonal depression, sleep not before 1 AM, melatonin at 6:30 PM plus light therapy 45 minutes): go to sleep at 11:30 PM with remission of depressive symptoms
- sleep onset under treatment (Case 3: history of seasonal depression, melatonin around 9 PM plus intermittent light therapy): able to sleep at midnight without effort
